Values belong to the compound of their own block, whether it stands above or below them.
Columns and labels:
[1] = in vitro; details: human, Caco-2
Experimental: (§1) Mannitol was used as a negative marker since it appears to be absorbed through the paracellular rather than the transcellular pathway. Cell transport, and efflux studies were conducted with Caco-2 cells grown on Snapwells between 22 to 28 days postseeding. Typically, 10 mM MES buffer (pH 6.5) with 5 mM KCl, 135 mM NaCl, 1.8 mM CaCl2, and 5 mM D-glucose was used for the AP side and 10 mM MOPS (pH 7.4) with 5 mM KCl, 132.5 mM NaCl, 1.8 mM CaCl2, and 5 mM D-glucose was used for the BL side. After washing the monolayers, drug-free media at the appropriate pH (pH 7.4 or 6.5) were first added to both compartments to allow the cells to equilibrate for approximately 15 min at 37° C. Transport studies were then conducted using 1.5 mL of transport media in the apical side and 2.5 mL in the basolateral side. The donor solution containing the probe compound was added to either the apical or basolateral compartment. Plates were placed in a shaking incubator (Boekel Scientific, Feasterville, Pa.) at 37° C. during the experiments. Transport in both apical-to-basolateral (A-to-B) and basolateral-to-apical (B-to-A) directions was measured for each drug. Aliquots were removed from the nondosing compartment at predetermined time points and replaced with fresh medium to maintain a constant volume. During studies with radiolabeled compounds, 100 uL samples were taken at each time point. The apparent permeability coefficients (Papp) were calculated using the following equation: Papp=dQ/dtX1/CoX1/A, where dQ/dt is the permeability rate, Co is the initial concentration in the donor compartment, and A is the surface area of the membrane. Flux rates (dQ/dt×1/A) were calculated by plotting the amount transported per unit area as a function of time and determining the slope of the line using linear regression.

[2] = Vogel conflict model of anxiety; assay type: in vivo; details: 30 mg/kg, PO
Description: The In vivo activity of compounds of this invention can be determined in animal models of hyperalgesia (See Sluka, K., et al. 2001, “Unilateral Intramuscular Injections Of Acidic Saline Produce A Bilateral, Long-Lasting Hyperalgesia”, Muscle Nerve 24: 37-46; Dixon, W., 1980, “Efficient analysis of experimental observations”. Ann Rev Pharmacol Toxicol 20:441-462; Randall L. O. and Selitto J. J., “A Method For Measurement Of Analgesic Activity On Inflamed Tissue,” Arch. Int. Pharmacodyn, 1957;4:409-419; Hargreaves K., Dubner R., Brown F., Flores C., and Joris J. “A New And Sensitive Method For Measuring Thermal Nociception In Cutaneous Hyperalgesia”. Pain. 32:77-88, 1988.), anxiety (Vogel J. R., Beer B., and Clody D. E., “A Simple And Reliable Conflict Procedure For Testing Anti-Anxiety Agents”, Psychopharmacologia 21:1-7, 1971),
The In vivo activity of a compound of this invention was determined in an animal model of anxiety as set forth in Vogel J R, Beer B., and Clody D E, “A Simple And Reliable Conflict Procedure For Testing Anti-Anxiety Agents”, Psychopharmacologia 21:1-7, 1971).

[3] = tested on: Caco-2 cells; assay: Caco-2 cell transport and efflux (permeability) study
Experimental: as §1

Papp A→B [1]: 8.74 ×10⁻⁶ cm/s
Papp B→A [1]: 20.3 ×10⁻⁶ cm/s
Structure (SMILES): COCCc1ccc(OCC(O)CNC(C)C)cc1 (stereo not drawn) [Metoprolol]

Structure (SMILES): CCC[C@@H](C)C[C@H](CNC(=O)[C@@H](N)CC(C)C)CC(=O)O [3S-[(2S-Amino-4-methyl-pentanoylamino)-methyl]-5R-methyl-octanoic acid]
Anxiolytic Activity, percent reference activity compared to pregabalin [2]: 138.10%

Papp A→B [1]: 1.81 ×10⁻⁶ cm/s
Papp B→A [1]: 1.41 ×10⁻⁶ cm/s
efflux ratio [1]: 0.78
Structure (SMILES): OC[C@@H](O)[C@@H](O)[C@H](O)[C@H](O)CO [Mannitol]

Structure (SMILES): CCCC[C@@H](C)C[C@H](CNC(=O)[C@@H](N)CC(C)C)CC(=O)O [3S-[(2S-Amino-4-methyl-pentanoylamino)-methyl]-5R-methyl-nonanoic acid]
Substrate for efflux ([3]; Caco-2, 10 uM, concluded from ratio B to A/A to B): unlikely to be a substrate for efflux
A to B Peff * 10^−6 ([3]; Caco-2, apical to basal, apical pH 6.5, basolateral pH 7.4, 37° C.): 0.74 10^−6
Caco-2 permeability, apical to basolateral direction ([3]; concentration of 10 uM): 0.74 ×10⁻⁶ cm/s

— US7491835B2, “Prodrugs of amino acids with affinity for the α2δ-protein” (Pfizer Inc, priority 2003, dated 2009)
